Laboratory results as given in patent US20240059703A1 (AMGEN INC., priority 2021, published 2024).

Tests used:
KRAS G12C = KRAS G12C (Homo sapiens (Human), UniProt P01116, C118A/G12C); assay: 2 h coupled exchange assay; assay type: biochemical; details: Avg 2 h Coupled exchange IC50, 2 h compound pre-incubation, SOS-mediated nucleotide exchange
Method: The term “2 h coupled exchange assay” or “20 h coupled exchange assay” as used herein refers to the assay described in the Section entitled “BIOLOGICAL EVALUATION.”

[1] = system: MIA PaCa-2 (human pancreatic carcinoma) cells; assay: Cell Viability Assay (CellTiter-Glo), MIA PaCa-2; assay type: cell-based; details: Homo sapiens, MIA PaCa-2, 72 h
Method: Serially-diluted compound or DMSO was added to the cells, and plates were incubated at 37° C., 5% CO2 for 72 h. Cell viability was measured using a CellTiter-Glo® Luminescent Cell Viability Assay kit (Promega) according to the manufacturer's protocol. The luminescence signal of treated samples was normalized to DMSO control, and data were analyzed using a 4-parameter logistic model to calculate IC50 values.

[2] = system: A549 (human lung carcinoma) cells; assay: Cell Viability Assay (CellTiter-Glo), A549; assay type: cell-based; details: Homo sapiens, A549, 72 h
How it was run: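 MIA PaCa-2 or A549 cells in RPMI 1640 with 10% FBS were seeded at 1.67E+04 cells/mL and incubated overnight. Serially diluted compound was then added for 72 h at 37° C, 5% CO2. Viability read by CellTiter-Glo luminescence, normalized to DMSO, with IC50 from a 4-parameter logistic fit.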

KRAS G12C, sequence (P01116 other isoform, or with tags, fused parts or gaps G12C/C118A): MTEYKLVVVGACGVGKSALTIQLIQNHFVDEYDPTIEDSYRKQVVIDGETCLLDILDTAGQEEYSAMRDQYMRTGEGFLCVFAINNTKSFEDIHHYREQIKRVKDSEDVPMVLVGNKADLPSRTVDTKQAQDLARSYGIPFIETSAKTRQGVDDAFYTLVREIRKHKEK

SMILES	IC50 (KRAS G12C)	IC50 [1]	IC50 [2]
C=CC(=O)N1CC2(CCN(c3nc4c(c(-c5c(C)ccc6[nH]ncc56)c3C#N)CCC(C)(C)C4)[C@@H]2CF)C1 (stereo in doubt) [Example 13-79, (M)-2-((5R)-5-(fluoromethyl)-2-(2-propenoyl)-2,6-diazaspiro[3.4]octan-6-yl)-7,7-dimethyl-4-(5-methyl-1H-indaazol-4-yl)-5,6,7,8-tetrahydro-3-quinolinecarbonitrile and (P)-((5S)-5-(fluoromethyl)-2-(2-propenoyl)-2,6-diazaspiro[3.4]octan-6-yl)-7,7-dimethyl-4-(5-methyl-1H-indazol-4-yl)-5,6,7,8-tetrahydro-3-quinolinecarbonitrile]	0.433 µM	8.23 µM	7.45 µM
C=CC(=O)N1CC2(CCN(c3nc4c(c(-c5c(C)ccc6[nH]ncc56)c3C#N)CCC(C)(C)C4)[C@H]2CF)C1 (stereo in doubt) [Example 13-80, (M)-2-((5S)-5-(fluoromethyl)-2-(2-propenoyl)-2,6-diazaspiro[3.4]octan-6-yl)-7,7-dimethyl-4-(5-methyl-1H-indazol-4-yl)-5,6,7,8-tetrahydro-3-quinolinecarbonitrile and (P)-2-((5R)-5-(fluoromethyl)-2-(2-propenoyl)-2,6-diazaspiro[3.4]octan-6-yl)-7,7-dimethyl-4-(5-methyl-1H-indazol-4-yl)-5,6,7,8-tetrahydro-3-quinolinecarbonitrile]	0.045 µM	0.952 µM	> 5 µM
C=CC(=O)N1CC2(CCN(c3nc4c(c(-c5cc(O)ccc5C)c3C#N)[C@H]3CC[C@@H]4C3)C2)C1 (stereo in doubt) [Example 14-9, (1R,8S)-6-(5-hydroxy-2-methylphenyl)-4-(2-(2-propenoyl)-2,6-diazaspiro[3.4]octan-6-yl)-3-azatricyclo[6.2.1.0^2,7]undeca-2,4,6-triene-5-carbonitrile]	0.091 µM	0.569 µM	10.4 µM
C=CC(=O)N1CC2(CCN(c3nc4c(c(-c5cc(O)cc6ccccc56)n3)CCCC4)C2)C1 [Example 1-1, 1-(6-(4-(3-hydroxynaphthalen-1-yl)-5,6,7,8-tetrahydroquinazolin-2-yl)-2,6-diazaspiro[3.4]octan-2-yl)prop-2-en-1-one]	0.431 µM	> 5 µM	> 5 µM
C=CC(=O)N1CC2(CCN(c3cc4ccccc4c(-c4c(C)ccc5[nH]ncc45)c3C#N)C2)C1 [Example 1-2, 3-(2-acryloyl-2,6-diazaspiro[3.4]octan-6-yl)-1-(5-methyl-1H-indazol-4-yl)-2-naphthonitrile]	0.158 µM	0.58 µM	3.71 µM
C=CC(=O)N1CC2(CCN(c3nc4c(c(-c5c(C)ccc6[nH]ncc56)c3C#N)CCC4)C2)C1 [Example 1-3, 4-(5-methyl-1H-indazol-4-yl)-2-(2-(2-propenoyl)-2,6-diazaspiro[3.4]octan-6-yl)-6,7-dihydro-5H-cyclopenta[b]pyridine-3-carbonitrile]	0.154 µM	0.847 µM	7.42 µM
C=CC(=O)N1CC2(CCN(c3nc4c(F)cccc4c(-c4c(C)ccc5[nH]ncc45)c3C#N)C2)C1 [Example 1-4, 8-fluoro-4-(5-methyl-1H-indazol-4-yl)-2-(2-(2-propenoyl)-2,6-diazaspiro[3.4]octan-6-yl)-3-quinolinecarbonitrile]	0.29 µM	1.39 µM	4.94 µM
C=CC(=O)N1CC2(CCN(c3cn4ccnc4c(-c4c(C)ccc5[nH]ncc45)c3C#N)C2)C1 [Example 1-5]	0.52 µM	1.63 µM	50 µM
C=CC(=O)N1CC2(CCN(c3nc4c(C)cccc4c(-c4c(C)ccc5[nH]ncc45)c3C#N)C2)C1 [Example 1-6, 8-methyl-4-(5-methyl-1H-indazol-4-yl)-2-(2-(2-propenoyl)-2,6-diazaspiro[3.4]octan-6-yl)-3-quinolinecarbonitrile]	1.89 µM	1.14 µM	6.44 µM
C=CC(=O)N1CC2(CCN(c3nc4c(c(-c5cccc6cccc(C)c56)n3)CCCC4)C2)C1 [Example 1-7, 1-(6-(4-(8-methyl-1-naphthalenyl)-5,6,7,8-tetrahydro-2-quinazolinyl)-2,6-diazaspiro[3,4]octan-2-yl)-2-propen-1-one]	0.997 µM	> 5 µM	> 5 µM
C=CC(=O)N1CC2(CCN(c3nc4c(c(-c5cccc6cccc(Cl)c56)n3)CCCC4)C2)C1 [Example 1-9, 1-(6-(4-(8-chloro-1-naphthalenyl)-5,6,7,8-tetrahydro-2-quinazolinyl)-2,6-diazaspiro[3.4]octan-2-yl)-2-propen-1-one]	4.58 µM	18.1 µM	> 25 µM
C=CC(=O)N1CC2(CCN(c3nc4c(c(-c5c(C)ccc6[nH]ncc56)n3)CCC(C)C4)C2)C1 (stereo not drawn) [Example 1-11, 1-(6-((7)-7-methyl-4-(5-methyl-1H-indazol-4-yl)-5,6,7,8-tetrahydro-2-quinazolinyl)-2,6-diazaspiro[3.4]octan-2-yl)-2-propen-1-one]	3.09 µM	> 5 µM	> 5 µM
C=CC(=O)N1CC2(CCN(c3nc4c(c(-c5c(C)ccc6ccccc56)n3)CCCC4)C2)C1 [Example 1-12, 1-(6-(4-(2-methyl-1-naphthalenyl)-5,6,7,8-tetrahydro-2-quinazolinyl)-2,6-diazaspiro[3.4]octan-2-yl)-2-propen-1-one]	2.59 µM	5.39 µM	7.23 µM
C=CC(=O)N1CC2(C1)CN(c1nc3c(F)cccc3c(-c3c(C)ccc4[nH]ncc34)c1C#N)CC2F (stereo not drawn) [Example 1-13, 8-fluoro-2-((8)-8-fluoro-2-(2-propenoyl)-2,6-diazaspiro[3.4]octan-6-yl)-4-(5-methyl-1H-indazol-4-yl)-3-quinolinecarbonitrile]	0.601 µM	1.88 µM	3.12 µM
C#CC(=O)N1CC2(CCN(c3nc4c(F)cccc4c(-c4c(C)ccc5[nH]ncc45)c3C#N)C2)C1 [Example 1-14, 8-fluoro-4-(5-methyl-1H-indazol-4-yl)-2-(2-(2-propynoyl)-2,6-diazaspiro[3.4]octan-6-yl)-3-quinolinecarbonitrile]	0.327 µM	0.069 µM	1.09 µM
C=CC(=O)N1CC2(CCN(c3nc(-c4c(C)ccc5[nH]ncc45)c4c(n3)C(C)CCC4)C2)C1 (stereo not drawn) [Example 1-15, 1-(6-((8)-8-methyl-4-(5-methyl-1H-indazol-4-yl)-5,6,7,8-tetrahydro-2-quinazolinyl)-2,6-diazaspiro[3.4]octan-2-yl)-2-propen-1-one]	9.06 µM	> 5 µM	> 5 µM
C=CC(=O)N1CC2(CCN(c3nc4c(c(-c5c(C)ccc6cn[nH]c56)n3)CCCC4)C2)C1 [Example 1-16, 1-(6-(4-(6-methyl-1H-indazol-7-yl)-5,6,7,8-tetrahydro-2-quinazolinyl)-2,6-diazaspiro[3.4]octan-2-yl)-2-propen-1-one]	6.72 µM	10.3 µM	> 25 µM
C=CC(=O)N1CC2(CCN(c3nc4c(c(-c5c(C)ccc6[nH]ncc56)n3)CCCC4)C2)C1 [Example 1-17, 1-(6-(4-(5-methyl-1H-indazol-4-yl)-5,6,7,8-tetrahydro-2-quinazolinyl)-2,6-diazaspiro[3.4]octan-2-yl)-2-propen-1-one]	5.76 µM	> 5 µM	> 5 µM
